The nature of data set [1]: Toxicity in KM mouse infected with methicillin-resistant Staphylococcus aureus 3 assessed as kidney damage at 5 to 10 mg/kg administered into skin infection site measured after 24 hrs by H and E staining based analysis. It counts as organism-based. The conditions noted are these: in vivo, topical_or_ocular, dose 5-10 mg/kg.
Data set [2] is described as follows: Toxicity in KM mouse assessed as pathological changes in kidneys at 20 mg/kg, sc administered into middle dorsum and measured after 24 hrs by H and E staining based analysis. The data set is classed as organism-based. The note with it: in vivo.
For data set [3], the system named is Staphylococcus aureus. Nature of the data set: Antibacterial activity against Staphylococcus aureus ATCC 29213 incubated for 16 to 18 hrs by CLSI-based microbroth dilution method. The conditions noted are these: time 16-18 hrs. The data set is classed as functional. (In general: Dilution methods test growth across graded concentrations, often in twofold steps.)

For data set [4], the system named is Staphylococcus aureus. Nature of the data set: Antibacterial activity against methicillin-resistant Staphylococcus aureus 3 infected in KM mouse assessed as reduction in bacterial load at infection site at 10 mg/kg administered into skin infection site measured after 24 hrs relative to control. The data set is classed as functional. Further details: scale not given: the % may be the effect or the level left.

Data set [5] in a line: Toxicity in KM mouse assessed as effect on RBC count at 20 mg/kg, sc administered into middle dorsum and measured after 24 hrs by routine blood test. It counts as organism-based, Erythrocyte. The conditions noted are these: in vivo.
Data set [6] concerns Staphylococcus aureus. Briefly: Antibacterial activity against methicillin-resistant Staphylococcus aureus 3 infected in KM mouse assessed as reduction in skin lesions/abscesses in subcutaneous tissue at 10 mg/kg administered into skin infection site measured after 24 hrs. It counts as functional, organism-based.

Activity calls are given as the source filed them.

The term MIC denotes the smallest concentration in the dilution series that meets the test's criterion for growth inhibition. Turning to `CCCN(CCC)C(=O)C[N+](C)(C)CCCCOc1ccc(/C=C/C(=O)c2c(OC)cc3c(c2O)C=CC(C)(C)O3)cc1.[Br-]`, the Activity result in data set [1] was “Non-Toxic”; in data set [2], “Non-Toxic”; with Staphylococcus aureus [4], 99.998%; in data set [5], “Non-Toxic”. Besides, inhibition of growth with Staphylococcus aureus [3] (MIC) required 1 µg/mL. Moreover, the outcome with Staphylococcus aureus [6] was Active.

The values are drawn from ChEMBL document CHEMBL5316298, “Discovery of Amphiphilic Xanthohumol Derivatives as Membrane-Targeting Antimicrobials against Methicillin-Resistant Staphylococcus aureus” (J Med Chem, 2023).
